Results published in publication PMC9072656, “Inhibition of Human Sulfotransferases by Phthalate Monoesters” (Frontiers in Endocrinology, 2022).

Columns and labels:
Assay type in all cases: biochemical
SULT1B1 [1] = molecular target: T1, SULT1B1 (Homo sapiens, UniProt O43704); test: inhibition of 4-nitrophenol sulfation, UPLC-UV
T1 construct: recombinant, purchased from BD Gentest
Description: inhibition of 4-nitrophenol sulfation, UPLC-UV on SULT1B1

SULT1A1 = molecular target: T2, SULT1A1 (Homo sapiens, UniProt P50225); test: inhibition of 4-nitrophenol sulfation, UPLC-UV
T2 construct: recombinant, purchased from BD Gentest
T2 sequence (P50225 whole entry): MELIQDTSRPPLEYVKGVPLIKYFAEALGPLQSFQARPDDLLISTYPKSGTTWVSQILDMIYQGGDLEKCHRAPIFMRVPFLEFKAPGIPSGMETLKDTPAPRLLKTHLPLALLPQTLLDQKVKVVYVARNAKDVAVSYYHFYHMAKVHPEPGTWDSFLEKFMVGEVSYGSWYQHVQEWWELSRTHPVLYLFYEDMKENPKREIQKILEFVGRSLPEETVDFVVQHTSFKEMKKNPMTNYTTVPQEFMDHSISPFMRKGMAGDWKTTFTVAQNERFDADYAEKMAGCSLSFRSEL
Description: inhibition of 4-nitrophenol sulfation, UPLC-UV on SULT1A1

SULT1E1 [2] = molecular target: T3, SULT1E1 (Homo sapiens, UniProt P49888); test: inhibition of 4-nitrophenol sulfation, UPLC-UV, Lineweaver-Burk slope replot
T3 construct: recombinant, purchased from BD Gentest
T3 sequence (P49888 1-294): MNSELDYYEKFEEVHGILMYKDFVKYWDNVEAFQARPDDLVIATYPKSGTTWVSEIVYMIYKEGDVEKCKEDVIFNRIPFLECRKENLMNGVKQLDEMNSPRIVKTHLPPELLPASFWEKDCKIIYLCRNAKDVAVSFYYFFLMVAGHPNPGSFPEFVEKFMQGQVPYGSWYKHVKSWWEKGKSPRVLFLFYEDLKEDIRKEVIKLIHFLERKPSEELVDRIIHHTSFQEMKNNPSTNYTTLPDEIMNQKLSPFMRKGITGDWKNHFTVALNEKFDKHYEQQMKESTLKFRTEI

SULT1E1 [3] = molecular target: T3, SULT1E1; test: inhibition of 4-nitrophenol sulfation, UPLC-UV
Description: inhibition of 4-nitrophenol sulfation, UPLC-UV on SULT1E1

SULT1B1 [4] = molecular target: T1, SULT1B1; test: inhibition of 4-nitrophenol sulfation, UPLC-UV, Lineweaver-Burk slope replot

T1 sequence (O43704 whole entry): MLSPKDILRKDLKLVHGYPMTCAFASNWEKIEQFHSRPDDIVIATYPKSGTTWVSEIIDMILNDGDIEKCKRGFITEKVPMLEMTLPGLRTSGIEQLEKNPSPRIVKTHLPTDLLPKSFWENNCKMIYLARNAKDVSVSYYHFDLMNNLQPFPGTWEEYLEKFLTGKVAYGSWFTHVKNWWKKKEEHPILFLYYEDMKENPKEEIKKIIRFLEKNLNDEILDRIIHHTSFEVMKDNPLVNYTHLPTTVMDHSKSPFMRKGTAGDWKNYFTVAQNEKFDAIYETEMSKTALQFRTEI

Row | SMILES | IC50 (SULT1B1 [1]) | IC50 (SULT1A1) | Ki (SULT1E1 [2]) | IC50 (SULT1E1 [3]) | Ki (SULT1B1 [4])
1 | CCCCOC(=O)c1ccccc1C(=O)O [MBP] | 8.49 µM |  |  |  | 
2 | O=C(O)c1ccccc1C(=O)OC1CCCCC1 [MCHP] | 12.8 µM |  |  |  | 
3 | CCCCCCCCOC(=O)c1ccccc1C(=O)O [MOP] | 2.73 µM | 5.61 µM | 5.54 µM | 1.77 µM | 2.23 µM
4 | CCCCCCOC(=O)c1ccccc1C(=O)O [MHP] | 11.6 µM | 17.1 µM |  | 4.54 µM | 
5 | O=C(O)c1ccccc1C(=O)OCc1ccccc1 [MBZP] |  | 0.25 µM |  |  | 
6 | CCCCC(CC)COC(=O)c1ccccc1C(=O)O (centres unmarked) [MEHP] | 13.9 µM | 2.32 µM |  | 1.73 µM | 
